From patent US20220110985A1, “NUTRITIONAL COMPOSITION COMPRISING 2'FUCOSYLLACTOSE AND 3'GALACTOSYLLACTOSE” (N.V. Nutricia, priority 2019, published 2022)

Columns and labels:
[1] = tested on: infant intestinal microbiota; assay: quad-SHIME infant intestinal microbiota model (SCFA, glycoprofile); assay type: cell-based, human infant faecal inoculum; parameters: Butyrate (Mean ± SD) / Iso-Butyrate (Mean ± SD) / Acetate (Mean ± SD): unit not given here; conditions: distal colon
Excerpt: A faecal sample from a healthy infant born via C-section, exclusively breastfed with no history of antibiotic usage, was used as inoculum to simulate the infant intestinal microbiota in the colon compartments of a quad-SHIME®—a dynamic model of the human gastrointestinal tract comprises 4 SHIME® units running in parallel and each SHIME® unit is composed of 3 reactors simulating the stomach and small intestine, proximal and distal colons.

fecal slurry microbiota = assay: Anaerobic fermentation of fecal slurry (BioLector Pro): acidification, microbiota composition; assay type: cell-based, human infant; conditions: no pathogen spiking
Description: (§1) Anaerobic fermentation of fecal slurry samples was tested in a BioLector Pro microfluidics mini multifermentor. Faecal slurry samples were collected from breast fed infants and from formula fed infants. These faecal slurry samples were processed by adding 0.6 grams feces in 40 ml Baby Reichardt V.6 medium+mucus+Ammonium sulfate+lactate and acetate. The resulting solutions were inserted to the BioLector Pro microfluidics mini multifermentor. The test legs were supplemented with 3-GL, 2′-FL, 3′-GL+2′-FL, and GOS/FOS. The control leg was supplemented with sterile water.
In addition the test legs were supplemented with Clostridium difficile C153 (difficile agar), Salmonella enteriditis S29 (XLD agar), Cronobacter sakasakii E71 (chromogenic agar) or Klebsiella pneumonia K2 (Simons citrate inositol agar). For every NDO and for the control also a pathogen free culture was prepared.
After fermentation the fermented solutions were tested for SCFA content (in particular acetic acid, propionic acid, butyric acid and isobutyric acid), ammonia content, lactate content and pathogen concentration. Also DNA-isolation+identification and 16s sequencing was performed to determine the composition of the microbiota.
A 32 well plate that can handle low pH was used. The wells of this plate were filled with fecal solution. […]

human PBMC, unstimulated = assay: Cytokine production of unstimulated PBMC (IL10, CCL20); assay type: cell-based; conditions: for CCL20 level as compared to blanc control, in words: unstimulated PBMC; for Relative CCL 20 mean (s.e.): 0.1 w/v % 3′-GL
Excerpt: Isolation of PBMC from healthy donors: Human peripheral blood mononuclear cells (PBMC) from healthy donors were isolated from buffy coats (Sanquin, Amsterdam, the Netherlands). PBMC were obtained by centrifugation using Leucosep tubes (Greiner Bio-One). […] After lysis, the PBMC were resuspended in freezing medium (70% RPMI 1640 medium (Gibco, Thermo Fisher Technologies) supplemented with 10% heat-inactivated FCS and 100 U/ml penicillin-streptomycin, 20% heat-inactivated FCS and 10% DMSO (Sigma)) and cryopreserved. PBMC activation model: PBMC (0.2·10^6 cell/well) were cultured in 96-well flat bottom plates (Corning). For 24 hours the cells were pre-incubated with 2'-FL (Jennewein), 3'-GL (0-0.3% w/v; […] Sigma Aldrich) and combinations thereof. Subsequently, the cells were CD3/CD28-activated (Pelicluster CD3 and Pelicluster CD28, Sanquin) for an additional 24 hours. After incubation, IFNγ was measured by ELISA in the supernatants (see below). […] Roche) and/or 10% Triton (5 μl; negative control). […] Cytokine production of PBMC: PBMC were incubated with indicated reagents. After incubation, the supernatants were collected and IL2, IL6, IL10, IL13, IL21, TNFα, IFNγ, MIF, CCL1, CCL13, CCL17, CCL20, CCL22 and CXCL8-11 levels were measured by conducting a validated multiplex immunoassay based on Luminex technology (xMAP, Luminex Austin Tex. USA). Acquisition was conducted with the Biorad […] (Biorad laboratories, Hercules USA) in combination with xPONENT software version 4.2 (Luminex). Data was analyzed by 5-parametric curve fitting using Bio-Plex Manager software, version 6.1.1 (Biorad). After PBMC stimulation, cell culture supernatants were collected, after which cytokine responses were measured in order to test immune responsiveness of the cells. The levels of cytokines measured in stimulated conditions were corrected for the (low) levels of the cytokines measured in non-stimulated conditions. In addition, since each donor is reacting in its own efficiency onto the T cell stimulus, we calculated the individual index of cytokine response by dividing the intervention induced response by the basal stimulated response.

[2] = tested on: human peripheral blood mononuclear cells (PBMCs); assay: PBMC cell activity (WST-1); assay type: cell-based; conditions: after 24 h; non-stimulated and CD3/CD28 stimulated conditions
Description: Isolation of PBMC from healthy donors: Human peripheral blood mononuclear cells (PBMC) from healthy donors were isolated from buffy coats (Sanquin, Amsterdam, the Netherlands). PBMC were obtained by centrifugation using Leucosep tubes (Greiner Bio-One). PBMC were collected and washed in PBS (Gibco, Thermo Fisher Technologies)+2% heat-inactivated FCS (Invitrogen), followed by hypotonic lysis of erythrocytes with sterile lysis buffer (0.15 M NH4Cl, 0.01 M KHCO3 and 0.1 mM EDTA, pH of 7.4 at 4° C., all from Merck, Darmstadt, Germany). After lysis, the PBMC were resuspended in freezing medium (70% RPMI 1640 medium (Gibco, Thermo Fisher Technologies) supplemented with 10% heat-inactivated FCS and 100 U/ml penicillin-streptomycin, 20% heat-inactivated FCS and 10% DMSO (Sigma)) and cryopreserved.
PBMC activation model: PBMC (0.2·10^6 cell/well) were cultured in 96-well flat bottom plates (Corning). For 24 hours the cells were pre-incubated with 2′-FL (Jennewein), 3′-GL (0-0.3% w/v; Carbosynth) or sodium butyrate (0.2 mM; Sigma Aldrich) and combinations thereof. Subsequently, the cells were CD3/CD28-activated (Pelicluster CD3 and Pelicluster CD28, Sanquin) for an additional 24 hours. After incubation, IFNγ was measured by ELISA in the supernatants (see below). To determine cell activity after stimulation, PBMC were incubated with cell proliferation reagent WST-1 (10 μl; Roche) and/or 10% Triton (5 μl; negative control). After 3 hours, absorbance was measured at OD450 nm and OD650 nm and cell activity was calculated according to manufacturer's instructions.

Bifidobacteria = assay: Fecal slurry fermentation: total Bifidobacteria; assay type: cell-based
Description: as §1
A 32 well plate that can handle low pH was used. The wells of this plate were filled with fecal solution. 2.5% (w/v) of the different sterile carbohydrate solutions (3′-GL, 2′-FL, 2′-FL/3′-GL (2.0+0.5%). and Glucose were added to the fecal slurry according to a template.
The experiment was started, and pH setpoint was either 5.5 (facial inoculum from infant 1, vaginally born, breast fed) or pH 6.0 (Inoculum from infant 2, vaginally born, breast fed) with continuous pH regulation, and temperature 37° C., humidity 85%, OD control. At 4, 8 and 24 hours a sample is taken for CFU determination on TOS-propionate MUP agar (total Bifidobacteria), XLD agar for Salmonella enteriditis S29, and Simons citrate inositol agar for Klebsiella pneumonia K2 and for SCFA, D- and L Lactate and ammonia analysis. Fecal pellet was used for 16s DNA sequencing.

[3] = unstimulated, 0.2% w/v 2′-FL, 0.2 mM butyrate, blanc = 1, observed

C[C@@H]1O[C@@H](O[C@H]2[C@H](O[C@H]3[C@H](O)[C@@H](O)C(O)O[C@@H]3CO)O[C@H](CO)[C@H](O)[C@@H]2O)[C@@H](O)[C@H](O)[C@@H]1O (stereo partly drawn) [2′-FL, α-L-Fuc-(1→2)-β-D-Gal-(1→4)-D-Glc]
Acetate (Mean ± SD) ([1]; D1-D3): 38.67 ± 10.25
Butyrate (Mean ± SD) ([1]; D1-D3): 0 ± 0
Iso-Butyrate (Mean ± SD) ([1]; D1-D3): 0 ± 0
Propionate (Mean ± SD) ([1]; D1-D3): 10.17 ± 3.01
Acetate (Mean ± SD) ([1]; D4-D11): 26.22 ± 0.97
Butyrate (Mean ± SD) ([1]; D4-D11): 0.74 ± 0.49
Iso-Butyrate (Mean ± SD) ([1]; D4-D11): 0.68 ± 0.75
Propionate (Mean ± SD) ([1]; D4-D11): 6.58 ± 0.49
Acetate (Mean ± SD) ([1]; D12-D15): 22.96 ± 1.04
Butyrate (Mean ± SD) ([1]; D12-D15): 0.99 ± 0.09
Iso-Butyrate (Mean ± SD) ([1]; D12-D15): 0.93 ± 0.21
Propionate (Mean ± SD) ([1]; D12-D15): 6.13 ± 0.63
butyrate generation, in words ([1]; relative to control and scGOS/lcFOS groups): generated earlier in the distal colon and at a higher concentration
extent of fermentation as measured by NaOH consumption, i.e. acid production (fecal slurry microbiota; both inocula): slower and lower acidification
IL10 level as compared to blanc control, in words (human PBMC, unstimulated; 0.2% 2′-FL, 0.2 mM butyrate): significantly (p<0.05) increased level
CCL20 level as compared to blanc control, in words (human PBMC, unstimulated): increased level
Relative IL10 level, mean (se) (human PBMC, unstimulated; [3]): 3.361 (1.867)
Relative CCL 20 mean (s.e.) (human PBMC, unstimulated; [3]): 2.586 (0.281)
Immune cell activity as measured by WST, in words [2]: significantly increased
Growth of bifidobacteria (Bifidobacteria): Growth of bifidobacteria was observed

Gal (beta 1-3)-Gal (beta 1-4)-Glc [3′-GL]
rate of initial acidification (fecal slurry microbiota): high
CCL20 level as compared to blanc control, in words (human PBMC, unstimulated): did not have a statistically significant effect
Relative CCL 20 mean (s.e.) (human PBMC, unstimulated; [3]): 1.164 (0.212)
Immune cell activity as measured by WST, in words [2]: decrease in activation
Growth of bifidobacteria (Bifidobacteria): Growth of bifidobacteria was observed
effect on bifidobacteria (Bifidobacteria; inoculum of baby 2): highest
